Laboratory results reported in patent publication US20130065818A1, “Arylamide Compounds And Compositions And Uses Thereof” (POLYMEDIX, priority 2006, published 2013).

Key:
Experiment in all cases: MIC of clinical ocular isolates (Example 1)
Format in all cases: cell-based
[1] = test system: Ciprofloxacin Resistant (CR) S. aureus (CRSA); conditions: Staphylococcus aureus; CRSA clinical ocular isolates (n=28)
CS S. epidermidis (CSSE) = conditions: Staphylococcus epidermidis; CSSE clinical ocular isolates (n=26)
CR S. epidermidis (CRSE) = conditions: Staphylococcus epidermidis; CRSE clinical ocular isolates (n=26)
St. pneumoniae (SP) = conditions: Streptococcus pneumoniae; SP clinical ocular isolates (n=27)
St. viridans group (SV) = conditions: Streptococcus viridans
Moraxella Species (MS) = conditions: MS clinical ocular isolates (n=25)
H. influenzae (HI) = conditions: Haemophilus influenzae; HI clinical ocular isolates (n=26)
P. aeruginosa (PA) = conditions: Pseudomonas aeruginosa; PA clinical ocular isolates (n=26)
Serratia marcescens (SM) = conditions: SM clinical ocular isolates (n=27)

N=C(N)NCCCCC(=O)Nc1cc(C(F)(F)F)cc(NC(=O)c2cc(C(=O)Nc3cc(C(F)(F)F)cc(NC(=O)CCCCNC(=N)N)c3SCCN)ncn2)c1SCCN [Oligomer 2]
MIC50 [1]: 0.25 mg/L
MIC90 [1]: 0.25 mg/L
MIC50 (CS S. epidermidis (CSSE)): 0.03 mg/L
MIC90 (CS S. epidermidis (CSSE)): 0.03 mg/L
MIC50 (CR S. epidermidis (CRSE)): 0.03 mg/L
MIC90 (CR S. epidermidis (CRSE)): 0.03 mg/L
MIC50 (St. pneumoniae (SP)): 1 mg/L
MIC90 (St. pneumoniae (SP)): 2 mg/L
MIC50 (St. viridans group (SV)): 4 mg/L
MIC90 (St. viridans group (SV)): 32 mg/L
MIC50 (Moraxella Species (MS)): 0.25 mg/L
MIC90 (Moraxella Species (MS)): 0.5 mg/L
MIC50 (H. influenzae (HI)): 8 mg/L
MIC90 (H. influenzae (HI)): 16 mg/L
MIC50 (P. aeruginosa (PA)): 4 mg/L
MIC90 (P. aeruginosa (PA)): 8 mg/L
MIC50 (Serratia marcescens (SM)): 16 mg/L
MIC90 (Serratia marcescens (SM)): 32 mg/L
